Data on one compound can be found in ChEMBL document CHEMBL3638839, “Azetidine derivatives” (2015).

Usually IC50 stands for the concentration that gives 50% inhibition.

The structures appear in SMILES notation.

The target in the test is T1, Fatty-acid amide hydrolase 1 (Homo sapiens, UniProt O00519).
T1 sequence (O00519 whole entry): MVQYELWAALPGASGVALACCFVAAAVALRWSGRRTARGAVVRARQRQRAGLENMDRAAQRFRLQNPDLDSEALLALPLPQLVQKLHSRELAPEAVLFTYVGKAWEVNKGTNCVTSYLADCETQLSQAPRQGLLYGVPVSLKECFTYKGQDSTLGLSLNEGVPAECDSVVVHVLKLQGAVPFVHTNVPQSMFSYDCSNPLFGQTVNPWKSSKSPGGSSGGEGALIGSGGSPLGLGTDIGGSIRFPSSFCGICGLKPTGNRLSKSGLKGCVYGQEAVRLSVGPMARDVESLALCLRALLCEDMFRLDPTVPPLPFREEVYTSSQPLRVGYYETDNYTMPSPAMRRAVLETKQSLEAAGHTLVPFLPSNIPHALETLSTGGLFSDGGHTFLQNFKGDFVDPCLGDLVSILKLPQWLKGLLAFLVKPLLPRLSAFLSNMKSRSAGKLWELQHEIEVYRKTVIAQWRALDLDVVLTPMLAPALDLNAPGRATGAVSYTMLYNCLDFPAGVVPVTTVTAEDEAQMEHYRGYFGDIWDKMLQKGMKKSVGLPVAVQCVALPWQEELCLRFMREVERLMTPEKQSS
Nature of the test: Inhibition Assay: Human FAAH 1 activity was determined by measuring the liberation of the highly fluorescent 7-amino, 4-methyl Coumarin (AMC) generated during hydrolysis of the substrate arachidonoyl 7-amino, 4-methyl coumarin amide (AAMCA) by FAAH. Inhibition of human FAAH 1 activity was determined as a percentage reduction of the fluorescence determined in the absence of compound.The assay was carried out in black-walled, clear bottom, 384-well plates. 27.5 ul of human FAAH 1 protein (in FAAH assay buffer: 50 mM Hepes, 0.01% Triton X-100, 1 mM EDTA, 0.5 mg/ml BSA (fatty-acid-free), pH 8.2) was pre-incubated, at 10 nM, with increasing concentrations of compounds (2.5 ul in 100% DMSO) for 1 hour at room temperature. 2.5 ul of DMSO was added for total controls (100% FAAH activity) and 2.5 ul of URB-597, a known inhibitor of FAAH activity, (at a final, saturating, concentration of 10 uM) was used for non-specific controls (0 FAAH activity).

For the compound `COc1ccccc1-c1ccc(OC2CN(C(=O)Nc3cccnn3)C2)nc1`, the IC50 is 12 nM.
